From patent US20250163054A1, “SUBSTITUTED BICYCLIC HETEROARYL COMPOUNDS USEFUL AS INHIBITORS OF TLR9” (Bristol-Myers Squibb Company, priority 2022, published 2025)

How the values were obtained:
Assay type in all cases: cell-based
human TLR7 = biological target: T1, human TLR7 (Homo sapiens, UniProt Q9NYK1); experiment: TLR7/8/9 Inhibition Reporter Assays (TLR7); settings: HEK-Blue cells overexpressing human TLR7, SEAP reporter, stimulated with TLR7 ligand gardiquimod
T1 construct: host or cells: HEK-Blue cells (HEK293-derived reporter line)
T1 sequence (Q9NYK1 27-1049): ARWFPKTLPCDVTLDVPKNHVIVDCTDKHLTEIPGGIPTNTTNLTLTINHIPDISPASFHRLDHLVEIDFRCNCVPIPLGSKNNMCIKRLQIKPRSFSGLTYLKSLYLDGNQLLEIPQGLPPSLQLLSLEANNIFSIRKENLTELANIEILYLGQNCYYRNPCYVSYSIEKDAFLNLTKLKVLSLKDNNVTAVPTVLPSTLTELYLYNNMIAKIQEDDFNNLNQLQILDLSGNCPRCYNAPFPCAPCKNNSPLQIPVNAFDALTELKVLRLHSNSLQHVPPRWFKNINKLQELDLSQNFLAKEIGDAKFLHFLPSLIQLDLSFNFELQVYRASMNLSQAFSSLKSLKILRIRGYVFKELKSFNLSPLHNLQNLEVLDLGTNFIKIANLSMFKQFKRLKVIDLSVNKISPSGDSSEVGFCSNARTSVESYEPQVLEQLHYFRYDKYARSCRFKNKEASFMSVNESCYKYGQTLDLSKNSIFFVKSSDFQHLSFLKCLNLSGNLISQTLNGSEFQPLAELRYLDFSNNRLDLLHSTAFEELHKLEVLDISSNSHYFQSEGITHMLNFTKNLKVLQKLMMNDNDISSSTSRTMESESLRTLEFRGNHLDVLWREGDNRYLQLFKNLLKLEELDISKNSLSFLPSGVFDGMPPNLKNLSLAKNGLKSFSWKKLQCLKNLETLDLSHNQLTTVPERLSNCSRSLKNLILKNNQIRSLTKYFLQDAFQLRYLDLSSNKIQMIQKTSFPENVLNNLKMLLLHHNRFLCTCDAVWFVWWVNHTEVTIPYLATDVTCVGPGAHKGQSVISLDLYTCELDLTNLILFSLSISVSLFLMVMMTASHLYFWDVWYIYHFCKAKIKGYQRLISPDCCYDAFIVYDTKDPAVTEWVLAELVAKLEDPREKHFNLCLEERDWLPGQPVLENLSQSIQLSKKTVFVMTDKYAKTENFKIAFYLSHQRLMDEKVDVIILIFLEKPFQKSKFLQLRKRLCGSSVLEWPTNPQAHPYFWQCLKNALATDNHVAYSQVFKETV
Procedure, shortened: (§1)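 HEK-Blue cells overexpressing human TLR7, TLR8 or TLR9 with NF-κB/AP-1-driven SEAP reporter, pre-treated 60 min with compound ([…]). Stimulated with […] (TLR7), […] (TLR8) or ODN2006 200 nM (TLR9), then 22 h at 37° C; SEAP measured, % inhibition relative to agonist-plus-DMSO and known-inhibitor wells.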

human TLR8 = biological target: T2, human TLR8 (Homo sapiens, UniProt Q9NR97); experiment: TLR7/8/9 Inhibition Reporter Assays (TLR8); settings: HEK-Blue cells overexpressing human TLR8, SEAP reporter, stimulated with TLR8 ligand R848
T2 construct: host or cells: HEK-Blue cells (HEK293-derived reporter line)
T2 sequence (Q9NR97 27-1041): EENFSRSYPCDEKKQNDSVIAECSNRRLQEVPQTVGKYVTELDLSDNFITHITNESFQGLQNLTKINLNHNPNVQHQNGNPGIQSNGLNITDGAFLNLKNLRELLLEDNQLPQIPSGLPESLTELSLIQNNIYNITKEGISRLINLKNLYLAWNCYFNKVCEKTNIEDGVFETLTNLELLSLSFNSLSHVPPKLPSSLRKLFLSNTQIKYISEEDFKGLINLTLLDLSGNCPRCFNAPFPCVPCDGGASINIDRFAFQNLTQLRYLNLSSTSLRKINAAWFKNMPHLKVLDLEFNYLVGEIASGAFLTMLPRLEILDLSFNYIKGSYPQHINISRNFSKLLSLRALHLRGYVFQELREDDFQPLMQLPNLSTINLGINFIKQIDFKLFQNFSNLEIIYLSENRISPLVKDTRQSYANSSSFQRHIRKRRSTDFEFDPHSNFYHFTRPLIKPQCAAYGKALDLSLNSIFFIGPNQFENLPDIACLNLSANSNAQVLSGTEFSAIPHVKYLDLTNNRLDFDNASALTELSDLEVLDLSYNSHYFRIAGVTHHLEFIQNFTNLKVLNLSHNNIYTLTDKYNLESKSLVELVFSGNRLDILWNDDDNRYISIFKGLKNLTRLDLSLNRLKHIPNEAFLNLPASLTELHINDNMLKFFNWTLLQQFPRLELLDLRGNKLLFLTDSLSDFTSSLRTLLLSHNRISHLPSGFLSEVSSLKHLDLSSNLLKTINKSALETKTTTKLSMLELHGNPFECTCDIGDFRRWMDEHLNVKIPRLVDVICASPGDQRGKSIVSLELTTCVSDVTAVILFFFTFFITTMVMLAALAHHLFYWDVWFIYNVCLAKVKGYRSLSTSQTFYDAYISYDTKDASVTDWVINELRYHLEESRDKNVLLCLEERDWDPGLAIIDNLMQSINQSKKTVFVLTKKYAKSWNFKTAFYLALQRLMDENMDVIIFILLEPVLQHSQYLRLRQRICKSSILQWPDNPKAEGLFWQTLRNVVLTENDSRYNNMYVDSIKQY
Procedure, shortened: as §1

human TLR9 = biological target: T3, human TLR9 (Homo sapiens, UniProt Q9NR96); experiment: TLR7/8/9 Inhibition Reporter Assays (TLR9); settings: HEK-Blue cells overexpressing human TLR9, SEAP reporter, stimulated with TLR9 ligand ODN2006
T3 construct: host or cells: HEK-Blue cells (HEK293-derived reporter line)
T3 sequence (Q9NR96 26-1032): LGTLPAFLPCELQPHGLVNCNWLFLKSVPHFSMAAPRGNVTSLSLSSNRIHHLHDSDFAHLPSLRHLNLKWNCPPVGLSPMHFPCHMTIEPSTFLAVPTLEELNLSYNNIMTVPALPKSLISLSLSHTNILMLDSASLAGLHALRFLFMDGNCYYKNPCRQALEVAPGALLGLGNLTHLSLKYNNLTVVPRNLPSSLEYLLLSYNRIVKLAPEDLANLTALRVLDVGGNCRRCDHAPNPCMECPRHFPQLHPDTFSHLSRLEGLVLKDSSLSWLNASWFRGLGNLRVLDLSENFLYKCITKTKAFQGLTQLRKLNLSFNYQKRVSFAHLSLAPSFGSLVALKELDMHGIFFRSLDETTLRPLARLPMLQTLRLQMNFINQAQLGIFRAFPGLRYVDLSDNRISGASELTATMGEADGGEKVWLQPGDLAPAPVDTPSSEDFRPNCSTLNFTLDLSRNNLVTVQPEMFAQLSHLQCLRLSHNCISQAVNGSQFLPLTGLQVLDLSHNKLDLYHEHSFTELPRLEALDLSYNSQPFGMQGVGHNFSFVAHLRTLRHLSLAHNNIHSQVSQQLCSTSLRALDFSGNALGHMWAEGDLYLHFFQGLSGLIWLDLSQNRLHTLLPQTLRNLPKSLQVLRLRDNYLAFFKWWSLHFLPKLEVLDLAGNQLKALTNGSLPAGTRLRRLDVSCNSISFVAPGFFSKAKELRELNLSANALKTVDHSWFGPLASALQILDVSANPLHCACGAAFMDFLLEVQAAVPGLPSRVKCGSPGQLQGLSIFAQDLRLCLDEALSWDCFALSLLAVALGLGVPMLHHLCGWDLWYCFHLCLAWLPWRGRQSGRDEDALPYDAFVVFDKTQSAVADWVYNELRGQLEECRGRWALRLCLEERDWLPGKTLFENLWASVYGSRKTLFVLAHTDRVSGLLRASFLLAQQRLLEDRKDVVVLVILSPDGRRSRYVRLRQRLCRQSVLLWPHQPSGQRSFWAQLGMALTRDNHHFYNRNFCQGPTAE
Procedure, shortened: as §1

Structure (SMILES) | IC50 (human TLR7) [nM] | IC50 (human TLR8) [nM] | IC50 (human TLR9) [nM]
Cc1nc(-c2ccc(N3CCN(CC4CC4)CC3)cc2)cc2c1nc(-c1ccc(S(C)(=O)=O)cc1)n2C [Example 20, 6-(4-(4-(cyclopropylmethyl)piperazin-1-yl)phenyl)-1,4-dimethyl-2-(4-(methylsulfonyl)phenyl)-1H-imidazo[4,5-c]pyridine] | 2900 | 12000 | 360
CS(=O)(=O)c1ccc(-c2nc3cnc(-c4ccc(N5CCN(CCN6CCOCC6)CC5)cc4)cc3n2C2CC2)cc1 [Example 56, 4-(2-(4-(4-(1-cyclopropyl-2-(4-(methylsulfonyl)phenyl)-1H-imidazo[4,5-c]pyridin-6-yl)phenyl)piperazin-1-yl)ethyl)morpholine] | > 50000 | 46000 | 880
COc1ccc(-c2nc3c(C)nc(-c4ccc(N5CCC6(CC5)CN(CC(C)C)C6)cc4)cc3n2C)cc1OC [Example 75, 2-(3,4-dimethoxyphenyl)-6-(4-(2-isobutyl-2,7-diazaspiro[3.5]nonan-7-yl)phenyl)-1,4-dimethyl-1H-imidazo[4,5-c]pyridine] | 890 | 28000 | 97
COc1ccc(-c2nc3c(C)nc(-c4ccc(N5C[C@@H]6CN(C7CCC7)C[C@@H]6C5)cc4)cc3n2C)cc1OC [Example 66, 6-(4-((3aR,6aS)-5-cyclobutylhexahydropyrrolo[3,4-c]pyrrol-2(1H)-yl)phenyl)-2-(3,4-dimethoxyphenyl)-1,4-dimethyl-1H-imidazo[4,5-c]pyridine] | 2300 | 20000 | 29
COc1ccc(-c2nc3c(C)nc(-c4ccc(N5CCN(C(C)C)CC5)cc4)cc3n2C)cc1OC [Example 1, 2-(3,4-dimethoxyphenyl)-6-(4-(4-isopropylpiperazin-1-yl)phenyl)-1,4-dimethyl-1H-imidazo[4,5-c]pyridine] | 1000 | 7400 | 220

The next lines start with the values.

IC50 (human TLR7) [nM] | IC50 (human TLR8) [nM] | IC50 (human TLR9) [nM] | Structure (SMILES)
870 | 6900 | 13 | COc1ccc(-c2nc3c(C)nc(-c4ccc(N5CC6(C5)CN(C5CCC5)C6)cc4)cc3n2C)cc1OC [Example 77, 6-(4-(6-cyclobutyl-2,6-diazaspiro[3.3]heptan-2-yl)phenyl)-2-(3,4-dimethoxyphenyl)-1,4-dimethyl-1H-imidazo[4,5-c]pyridine]
470 | 9100 | 220 | COc1cc(-c2nc3c(C)nc(-c4ccc(N5CCN(C(C)C)CC5)cc4)cc3n2C)cn2ncnc12 [Example 9, 6-(6-(4-(4-isopropylpiperazin-1-yl)phenyl)-1,4-dimethyl-1H-imidazo[4,5-c]pyridin-2-yl)-8-methoxy-[1,2,4]triazolo[1,5-a]pyridine]
3800 | 4200 | 220 | COc1ccc(-c2nc3cnc(-c4ccc(N5C[C@H]6CN(CC(C)C)C[C@H]6C5)cc4)cc3n2C2CC2)cc1OC [Example 82, 1-cyclopropyl-2-(3,4-dimethoxyphenyl)-6-(4-((3aR,6aS)-5-isobutylhexahydropyrrolo[3,4-c]pyrrol-2(1H)-yl)phenyl)-1H-imidazo[4,5-c]pyridine]
1400 | > 50000 | 590 | CC(C)CN1CCC(N2CCC(c3cc4c(nc(-c5ccc(S(C)(=O)=O)cc5)n4C)c(C(F)(F)F)n3)CC2)CC1 [Example 33, 6-(1′-isobutyl-[1,4′-bipiperidin]-4-yl)-1-methyl-2-(4-(methylsulfonyl)phenyl)-4-(trifluoromethyl)-1H-imidazo[4,5-c]pyridine]
3100 | > 50000 | 110 | CC(C)N1CCC(N2CCC(c3cc4c(nc(-c5ccc(S(C)(=O)=O)cc5)n4C)c(C(F)(F)F)n3)CC2)CC1 [Example 3, 6-(1′-isopropyl-[1,4′-bipiperidin]-4-yl)-1-methyl-2-(4-(methylsulfonyl)phenyl)-4-(trifluoromethyl)-1H-imidazo[4,5-c]pyridine]
